The subject of one experiment is S. aureus RN4220 ("SA1"). Briefly: MIC by broth microdilution, wild-type sensitive S. aureus RN4220. The class given is cell-based, Staphylococcus aureus. The following applies: duplicate. How it is done: (§1) Quantitative assessment of resistance was performed by a broth microdilution method using cation-supplemented Mueller-Hinton broth containing antibiotics, the concentration of which varied in two-fold increments.
(§2) Preferably, the microdilution assay is performed using cation-adjusted Mueller-Hinton broth according to NCCLS (National Committee for Clinical Laboratory Standards) guideline M31 -A, Vol. 19, No. 11, “Performance standards for antimicrobial disk and dilution susceptibility tests for bacteria isolated from animals,” June 1999 (ISBN 1-56238-377-9), which is herein incorporated by reference.
(§3) To confirm the role of expZ in conferring resistance to hygromycin A analogues and other compounds, applicants examined the effect of B. subtilis and E. faecalis expZ expression and disruption on antibiotic resistance patterns. […] Also shown in Table 1 is the conferral of the “harA” phenotype on the normally drug-sensitive S. aureus RN4220 strain by transformation with a pMP plasmid containing B. subtilis harA.

The subject of the next experiment is SA1 (pMP20). Briefly: MIC by broth microdilution, S. aureus RN4220 with vector only (pMP20). The format is cell-based, Staphylococcus aureus. How it is done:
(§4) To identify genes whose products might be important in establishing the intrinsic level of resistance to hygromycins, applicants screened a recombinant library of B. subtilis chromosomal DNA segments cloned into the E. coli-S. aureus shuttle vector pMP20 for S. aureus transformants with increased levels of resistance to a hygromycin analogue, as follows:
(§5) Chromosomal DNA was extracted from a 100 mL culture of B. subtilis strain JH642 grown in L both, partially digested with Sau3A and fractionated by electrophoresis in a 1% agarose gel. A fraction corresponding in size to 2-4 kb was purified and used for ligation with pMP20 that had been digested with BamHI and dephosphorylated with alkaline phosphatase. Ligated DNA was used to transform E. coli DH5α by electroporation, with selection for ampicillin resistance. Transformant colonies were pooled; the plasmid DNA mixture was extracted and used to transform S. aureus RN4220 by electroporation with selection on plates containing erythromycin (2 μg/mL) and 2 μg/mL of a nonpolar hygromycin A analogue, 3-(4-((2S,4S,5R)-5-(3-(2,4-dichloro-phenoxy)-1-methyl)-(1E)-propenyl)-4-hydroxy-tetrahydro-furan-2-yloxy)-3-hydroxy-phenyl)-2-methyl-N-((3aS,4R,5R,6S,7R,7aR)-4,6,7-trihydroxy-hexahydro-benzo(1,3)dioxol-5-yl)-(2E)-acrylamide, which is Example 68 of WO 00/32616 and referred to herein as “Compound 1”.
(§6) Vector-transformed S. aureus cells were sensitive to this level of Compound 1. Plasmid segregation and backcross experiments confirmed that plasmids harboring DNA segments from the B. subtilis chromosome conferred hygromycin A resistance in S. aureus. The MIC for Compound 1 was increased in these strains from ≦0.2 μg/mL for pMP20 transformants to 50 μg/mL for cells transformed with the recombinant plasmids.
as §1, §2, §3

A further experiment relates to SA1 (pMP20 Bs_harA+). Briefly: MIC by broth microdilution, S. aureus RN4220 with vector carrying B. subtilis harA. The format is cell-based, Staphylococcus aureus. The conditions noted are these: for increase in the MIC: sensitive S. aureus strain compared to same strain transformed with and expressing harA. How it is done: as §4, §5, §6, §1, §2, §3
A general note: In broth dilution the organism is exposed to a series of concentrations in liquid medium.

Experiment [1] concerns B. subtilis JH642 trpC2 pheA1 ("BS1"). As to the kind of experiment: MIC by broth microdilution, wild-type resistant B. subtilis JH642. The format is cell-based, Bacillus subtilis. The following applies: duplicate. How it is done: as §1, §2, §3
A further experiment has as its system BS1 (harA::cat). Briefly: MIC by broth microdilution, B. subtilis JH642 harA disruption mutant. The format is cell-based, Bacillus subtilis. The conditions noted are these: for MIC: BS1 (harA::cat), disruption mutant, broth microdilution, duplicate; for susceptibility of strain JH642 expZ::CAT: B. subtilis harA::CAT insertion mutant.
Description: A B. subtilis strain expressing a harA::CAT insertion mutant was produced by single-crossover recombination using integrative plasmid pJPM1. Plasmid pJPM1 is a pSK^− derivative that carries the cat gene of S. aureus plasmid pC194 that confers chloramphenicol resistance in B. subtilis. […] However, if any DNA fragment providing a region of homology with the B. subtilis chromosome is inserted into this plasmid, it acquires the ability to transform B. subtilis competent cells to cat resistance at high frequency. The integration occurs via a Campbell-type (single crossover) recombination event that results in the duplication of the cloned region at either end of the vector. Reversal of the integration event leads to precise excision of the plasmid and restoration of gene structure on the chromosome. An internal fragment of the B. subtilis harA gene was excised using EcoRV and EcoRI and subcloned into compatible sites in pJPM1 creating plasmid pJPM1-expZ1. Plasmid pJPM1-expZ1 was used to transform the naturally competent B. subtilis strain JH642 (hygromycin-resistant) and transformants selected using chloramphenicol ([…]). A harA::CAT insertion mutant was confirmed by PCR and the strain was designated “JH642 expZ::CAT.” Strain JH642 expZ::CAT was hypersensitive to hygromycin analogues and other unrelated antibiotics including lankacidin and virginiamycin. Strain JH642 expZ::CAT was deposited with the ATCC on Sep. 26, 2000, and accorded Accession No. PTA-2480.
as §1, §2, §3

For experiment [2], the system named is E. faecalis OGX1 str gel ("EF1"). Briefly: MIC by broth microdilution, wild-type resistant E. faecalis OG1X. The class given is cell-based, Enterococcus faecalis. The conditions noted are these: duplicate. The procedure:
as §1, §2, §3

For the next experiment, the system named is EF1 (harA::erm). As to the kind of experiment: MIC by broth microdilution, E. faecalis OG1X harA disruption mutant. The class given is cell-based, Enterococcus faecalis. The conditions noted are these: for decrease in the MIC when the harA gene is disrupted: E. faecalis OG1X; for MIC: EF1 (harA::erm), disruption mutant, broth microdilution, duplicate; for susceptibility of strain OG1X harA::erm: E. faecalis harA::erm knockout strain.
Description: A PCR product corresponding to an internal segment of the E. faecalis harA gene was generated to obtain pVA891 -expZ by using the E. coli vector pVA891, which carries an ERM determinant that expresses in E. coli and E. faecalis. Briefly, internal harA primers were used (sense: 5′-[…]-3′-SEQ ID NO: 5); (antisense: 5′-[…]-3′-SEQ ID NO: 6) with E. faecalis genomic template DNA to generate a 665 bp PCR product. PCR-generated fragments were purified using the QIAquick PCR purification kit and cloned into the T-A cloning plasmid pGem-T Easy. The fragment was subsequently excised using EcoRI, gel purified using the S&S Elu-Quik kit, and cloned into the EcoRI site of pVA891. The ligation was transformed in E. coli DH5α with selection for erythromycin resistance (200 μg/mL); resulting in pVA891-expZ. The plasmid pVA891-expz was introduced by electroporation into E. faecalis OG1X (hygromycin resistant), where integrants occurring via homologous recombination were selected using erythromycin (20 μg/mL). The harA::erm knockout strain was confirmed by PCR and designated “OG1X harA::erm.” Strain OG1X harA::erm was hypersensitive to nonpolar hygromycin A analogues, lankacidin, virginiamycin and Synercid®. Revertants (i.e., resistant strains) could be obtained by growing for several generations in the absence of erythromycin and identified by screening for resistance to hygromycin A and sensitivity to erythromycin. Strain OG1X harA::erm was deposited with the ATCC on Sep. 26, 2000, and was accorded Accession No. PTA-2550.
as §1, §2, §3

Where [3] appears, read: SA1 (pMP20), wild-type, sensitive + vector only, broth microdilution, duplicate.
Where [4] appears, read: SA1 (pMP20 Bs_harA+), sensitive + vector with B. subtilis harA, broth microdilution, duplicate.

≈ marks a conversion by molar mass, not a printed value.

The term MIC denotes the lowest concentration that inhibits growth of the organism.

For “5-deoxy-5[4-[(2,6-dideoxy-β-D-erythro-hexofuranos-5-ulos-1-yl)oxy]-3-hydroxyphenyl]-2-methyl-1-oxo-2-(E)-propenyl]amino]-1,2-O-methylene-D-neo-inositol, (E)-O-[(3-chlorophenyl)methyl]oxime [Compound 2]”, the MIC entry in the experiment on S. aureus RN4220 ("SA1") was “≦0.2 μg/mL”; in the experiment on SA1 (pMP20) (setting [3]), “≦0.2 μg/mL”; with SA1 (pMP20 Bs_harA+) (setting [4]) it was 50 µg/mL; in experiment [1], 100 µg/mL; in the experiment on BS1 (harA::cat), 0.39 µg/mL; in experiment [2], 1.25 µg/mL. In the experiment with EF1 (harA::erm), the MIC result is on record as “≦0.2 μg/mL”. For the same compound, in the experiment with EF1 (harA::erm), the “decrease in the MIC when the harA gene is disrupted” value (from here on “decrease in the MIC”) is recorded as “greater than 4 fold”.
On to `C/C(=C\c1ccc(O[C@H]2C[C@H](O)[C@@H](/C(C)=C/COc3ccc(Cl)cc3Cl)O2)c(O)c1)C(=O)N[C@@H]1[C@H](O)[C@@H](O)[C@H]2OCO[C@H]2[C@@H]1O` [Compound 1], for which the MIC entry with S. aureus RN4220 ("SA1") is “≦0.2 μg/mL”; in the experiment on SA1 (pMP20) (S. aureus pMP20 transformants (library selection, text)), not above 0.2 µg/mL; with SA1 (pMP20) (setting [3]), “≦0.2 μg/mL”; with SA1 (pMP20 Bs_harA+) (S. aureus cells transformed with the recombinant plasmids carrying B. subtilis DNA segments), 50 µg/mL; in the experiment on SA1 (pMP20 Bs_harA+) (setting [4]), 100 µg/mL; in experiment [1] it was 50 µg/mL (≈ 74.8 µM). The MIC result is “≦0.2 μg/mL” in the experiment with BS1 (harA::cat), 1.25 µg/mL (≈ 1.87 µM) in experiment [2] and “≦0.2 μg/mL” in the experiment with EF1 (harA::erm). Besides, the “sensitivity of vector-transformed S. aureus cells on selection plates” value in the experiment with SA1 (pMP20) (2 μg/mL of compound on plates) is “sensitive”. The “increase in the MIC” value in the experiment with SA1 (pMP20 Bs_harA+) is recorded as approximately 500 fold.
For `C/C(=C\c1ccc(O[C@@H]2O[C@H](/C(C)=N/OCc3cccc(Cl)c3)[C@@H](O)[C@@H]2O)c(O)c1)C(=O)N[C@@H]1[C@H](O)[C@@H](O)[C@H]2OCO[C@H]2[C@@H]1O` [Compound 3, 5-deoxy-5-[[3-[4-[(6-deoxy-β-D-arabino-hexofuranos-5-ulos-1-yl)oxy]-3-hydroxyphenyl]-2-methyl-1-oxo-2-(E)-propenyl]amino]-1,2-O-methylene-D-neo-inositol, (E)-O-[(3-chlorophenyl)methyl]oxime], the minimum inhibitory concentration (MIC) in the experiment with S. aureus RN4220 ("SA1") was 0.39 µg/mL (≈ 0.599 µM); in the experiment with SA1 (pMP20) (setting [3]), 0.39 µg/mL; with SA1 (pMP20 Bs_harA+) (setting [4]) it was more than 100 µg/mL; in experiment [1], more than 100 µg/mL; in the experiment with BS1 (harA::cat), 0.78 µg/mL; in experiment [2] it was 1.56 µg/mL (≈ 2.4 µM). Also, the MIC result in the experiment with EF1 (harA::erm) is on record as “≦0.2 μg/mL”.
For `CC(=O)[C@H]1O[C@@H](Oc2ccc(/C=C(\C)C(=O)N[C@@H]3[C@H](O)[C@@H](O)[C@H]4OCO[C@H]4[C@@H]3O)cc2O)[C@@H](O)[C@@H]1O` [Hygromycin A], the MIC in the experiment on S. aureus RN4220 ("SA1") is 31.3 µg/mL (≈ 61.2 µM); with SA1 (pMP20 Bs_harA+) (setting [4]), 250 µg/mL; in experiment [1] it was 250 µg/mL (≈ 489 µM); in the experiment on BS1 (harA::cat) it was 15.6 µg/mL; in experiment [2], 62.5 µg/mL (≈ 122 µM); with EF1 (harA::erm) it was 7.8 µg/mL. For the same compound, the “increase in the MIC” value in the experiment with SA1 (pMP20 Bs_harA+) is recorded as “about 8 fold”. Moreover, in the experiment with BS1 (harA::cat) (B. subtilis JH642), the “decrease in the MIC” value is listed as “about 16 fold”.
In the case of `CC1=C\[C@@H](O)CC(=O)Cc2nc(co2)C(=O)N2CCC=C2C(=O)O[C@H](C(C)C)[C@H](C)/C=C/C(=O)NC\C=C\1` [Virginiamycin A], the MIC in the experiment on S. aureus RN4220 ("SA1") amounted to 0.78 µg/mL (≈ 1.48 µM); in the experiment with SA1 (pMP20) (setting [3]), 0.78 µg/mL; with SA1 (pMP20 Bs_harA+) (setting [4]) it was 50 µg/mL; in experiment [1], 25 µg/mL (≈ 47.6 µM); in the experiment with BS1 (harA::cat) it was 0.78 µg/mL; in experiment [2] it was 25 µg/mL (≈ 47.6 µM). In addition, the minimum inhibitory concentration (MIC) with EF1 (harA::erm) stood at 1.56 µg/mL. The “susceptibility of strain JH642 expZ::CAT” value in the experiment with BS1 (harA::cat) is “hypersensitive”. In the experiment on EF1 (harA::erm), the “susceptibility of strain OG1X harA::erm” value is given as “hypersensitive”.
On to Lankacidin, for which the MIC was 3.13 µg/mL against S. aureus RN4220 ("SA1"); more than 100 µg/mL in the experiment with SA1 (pMP20 Bs_harA+) (setting [4]); more than 100 µg/mL in experiment [1]; 1.56 µg/mL in the experiment on BS1 (harA::cat); more than 100 µg/mL in experiment [2]; 0.39 µg/mL in the experiment with EF1 (harA::erm). Also, in the experiment with BS1 (harA::cat), the “susceptibility of strain JH642 expZ::CAT” value was “hypersensitive”. Also, the “decrease in the MIC” value with EF1 (harA::erm) is on record as “greater than 100 fold”. In addition, in the experiment on EF1 (harA::erm), the “susceptibility of strain OG1X harA::erm” value is given as “hypersensitive”.
